Earlier results in patent publication US20070160648A1, “Methods for treating otic disorders” (pSivida Inc., priority 2002, published 2007).

With `[H]/N=C(/N)N[C@H]1[C@H](O)[C@@H](O)[C@H](O[C@@H]2O[C@@H](C)[C@](O)(C=O)[C@H]2O[C@@H]2O[C@@H](CO)[C@H](O)[C@@H](O)[C@@H]2NC)[C@@H](N/C(N)=N\[H])[C@@H]1O` [streptomycin] as the molecule, how does the “patients displaying some vestibular impairment” value (one gram of streptomycin daily for 60 to 120 days) read?
Its value is 25%.

What about the “incidence of vestibular impairment” value (two grams per day) of the same molecule?
Its value is 75%.
